Results taken from paper PMC7464559, “Synthesis, Optimization, Antifungal Activity, Selectivity, and CYP51 Binding of New 2-Aryl-3-azolyl-1-indolyl-propan-2-ols” (Pharmaceuticals, 2020).
≈ marks a conversion by molar mass, not a printed value. Like-named read-outs stand apart in the source and are kept apart here.

How the values were obtained:
[1] = test system: CL98001 (Candida lusitaniae); experiment: Anti-Candida in vitro assay, CL98001; format: cell-based; settings: Clavispora lusitaniae; Candida lusitaniae CL98001, mean of triplicate; read-out: MIC (IC80) CL98001
Method: (§1) Test fungal strains were obtained from the American Type Culture Collection (ATCC) or were clinical isolates from the Laboratory of Parasitology and Medical Mycology, Centre Hospitalier Universitaire (CHU) of Nantes. The strains were maintained on Sabouraud agar slants and were subcultured 24 h before used. The activity of the target compounds 8a–g and 11a–m was determined by the method previously described. Briefly, molecules were diluted in RPMI 1640 medium supplemented with 0.165 M morpholinopropanesulphonic acid (Sigma-Aldrich, Saint-Quentin Fallavier, France), 2% glucose, and antibiotics. Candida suspensions were prepared in RPMI 1640 medium (Sigma-Aldrich, Saint-Quentin Fallavier, France) adjusted to give a final concentration of 10^3 cells/mL, and a 96-well microplate (Nunc, D. Dutscher, Brumath, France) was seeded with 100 µL. Each concentration of molecules (100 µL) to be tested was added (in triplicate) and plates were incubated at 37 °C for 24 h. The cellular viability was evaluated on the Fluorolite 1000 (Dynatech, France) with an excitation at 550 nm and an emission at 590 nm after a 4 h incubation with 10 µL of Alamar Blue®. […] MIC was expressed as the mean of the triplicate values. KTC and FLC were used as standards.

MRC5 toxicity assay = format: cell-based, human; settings: human, MRC-5 cells, 96-h incubation, mean of triplicate, read-out: Cytotoxicity IC50 on MRC-5 cells
Method: (§2) The cytotoxicity of compounds was studied with human fibroblast (MRC5). Cells were grown in RPMI 1640 medium (Sigma-Aldrich, Saint-Quentin Fallavier, France) supplemented with 10% fetal bovin serum (Sigma–Aldrich). Drugs were tested at three concentrations (100, 10, and 1 µM) in triplicate. After a 96-h incubation time, cytotoxicity was measured on the Fluorolite 1000 (Dynatech, Guyancourt, France) after a 4-h incubation time with Uptiblue® (Interchim, Montluçon, France). Inhibitory concentration 50 is a mean of triplicate values. A toxicity index was determined as follow: IC50 against MRC5/Geometric mean of the MICs against Candida spp..

CK98003 (Candida krusei) = experiment: Anti-Candida in vitro assay, CK98003; format: cell-based; settings: Pichia kudriavzevii; Candida krusei CK98003, mean of triplicate; read-out: MIC (IC80) CK98003
Method: as §1

[2] = test system: CA98002 (Candida albicans); experiment: Anti-Candida in vitro assay, CA98002; format: cell-based; settings: Candida albicans CA98002, mean of triplicate; read-out: MIC (IC80) CA98002
Method: as §1

CYP11B2 = test system: CYP11B2; design: method as in PMID 21193036; settings: another similar study; cited from earlier work
CYP11B1 = test system: CYP11B1; design: method as in PMID 7663533; settings: cited from earlier work
[3] = test system: ATCC2091 Candida albicans strain; experiment: Anti-Candida in vitro assay, ATCC2091; format: cell-based; settings: Candida albicans ATCC2091, mean of triplicate; read-out: MIC (IC80) ATCC2091
Method: as §1

C. albicans CA98001 = experiment: Anti-Candida in vitro assay (Alamar Blue), C. albicans CA98001; format: cell-based; settings: MIC = IC80, 24 h at 37 °C, mean of triplicate; for MIC: Candida albicans, CA98001, 24 h
Method: as §1

[4] = test system: CA98005 (Candida albicans); experiment: Anti-Candida in vitro assay, CA98005; format: cell-based; settings: Candida albicans CA98005, mean of triplicate; read-out: MIC (IC80) CA98005
Method: as §1

[5] = test system: ATCC90018 Candida parapsilosis strain; experiment: Anti-Candida in vitro assay, ATCC90018; format: cell-based; settings: Lodderomyces parapsilosis; Candida parapsilosis ATCC90018, mean of triplicate; read-out: MIC (IC80) ATCC90018
Method: as §1

CK98002 (Candida krusei) = experiment: Anti-Candida in vitro assay, CK98002; format: cell-based; settings: Pichia kudriavzevii; Candida krusei CK98002, mean of triplicate; read-out: MIC (IC80) CK98002
Method: as §1

[6] = test system: ATCC6258 Candida krusei strain; experiment: Anti-Candida in vitro assay, ATCC6258; format: cell-based; settings: Pichia kudriavzevii; Candida krusei ATCC6258, mean of triplicate; read-out: MIC (IC80) ATCC6258
Method: as §1

aromatase (CYP19) = target: T1, aromatase (CYP19) (Homo sapiens, UniProt P11511); experiment: In vitro inhibition of aromatase; format: biochemical
T1 construct: Microsomal protein (0.1 mg) was added to start the reaction; from tissue; host or cells: microsomes; ('human placental microsomes')
T1 sequence (P11511 1-503): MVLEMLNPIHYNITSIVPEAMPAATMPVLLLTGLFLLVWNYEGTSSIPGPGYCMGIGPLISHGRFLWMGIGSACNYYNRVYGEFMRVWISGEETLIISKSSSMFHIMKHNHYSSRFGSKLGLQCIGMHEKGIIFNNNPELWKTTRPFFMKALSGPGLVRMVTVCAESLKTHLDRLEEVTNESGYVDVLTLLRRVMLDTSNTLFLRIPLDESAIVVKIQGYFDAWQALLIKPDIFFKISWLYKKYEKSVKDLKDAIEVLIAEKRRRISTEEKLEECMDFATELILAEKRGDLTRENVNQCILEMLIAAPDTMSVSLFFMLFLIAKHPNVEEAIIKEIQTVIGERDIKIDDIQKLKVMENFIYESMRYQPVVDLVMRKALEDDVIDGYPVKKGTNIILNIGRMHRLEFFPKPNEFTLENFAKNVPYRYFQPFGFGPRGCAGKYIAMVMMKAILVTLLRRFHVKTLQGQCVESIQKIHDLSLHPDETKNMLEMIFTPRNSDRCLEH
Method: The assay was performed according to previously described methods [49, 50, 51] by monitoring the enzyme activity by measuring the ^3H2O formed from [1β-^3H]androstenedione during aromatization. […] Microsomal protein (0.1 mg) was added to start the reaction. After incubation of 15 min at 30 °C, the reaction was stopped by adding 200 µL of a cold HgCl2 solution (1 mM). After the addition of 200 µL of an aqueous dextran-coated charcoal (DCC) suspension (2%), the vials were shaken then centrifuged to separate the charcoal-absorbed steroids. Aliquots of the supernatant were assayed for ^3H2O by counting in a scintillation mixture using a LKB-Wallac β-counter.

[7] = test system: human fetal lung fibroblast (MRC-5) cells; experiment: MRC5 toxicity assay; format: cell-based; settings: 96-h incubation, mean of triplicate, read-out: Cytotoxicity IC50 on MRC-5 cells
Method: as §2

[8] = target: T2, 17α-hydroxylase/17,20-lyase (CYP17) (Homo sapiens, UniProt P05093); experiment: In vitro inhibition of 17α-hydroxylase/17,20-lyase; format: biochemical; settings: mean of two experiments in duplicate
T2 sequence (P05093 1-508): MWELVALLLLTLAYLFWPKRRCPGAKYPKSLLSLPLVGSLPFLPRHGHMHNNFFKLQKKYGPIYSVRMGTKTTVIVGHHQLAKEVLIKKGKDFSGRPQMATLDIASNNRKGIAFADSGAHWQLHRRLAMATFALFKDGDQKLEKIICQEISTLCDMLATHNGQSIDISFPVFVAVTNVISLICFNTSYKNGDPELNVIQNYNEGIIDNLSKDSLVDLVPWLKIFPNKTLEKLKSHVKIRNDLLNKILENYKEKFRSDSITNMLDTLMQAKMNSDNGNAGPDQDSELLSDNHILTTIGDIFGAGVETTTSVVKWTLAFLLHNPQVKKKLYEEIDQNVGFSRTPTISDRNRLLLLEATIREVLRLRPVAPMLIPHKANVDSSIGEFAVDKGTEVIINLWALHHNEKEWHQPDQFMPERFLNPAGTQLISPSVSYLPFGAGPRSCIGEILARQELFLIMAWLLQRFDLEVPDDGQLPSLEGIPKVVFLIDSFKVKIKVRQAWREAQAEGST
Method: The assay was performed similar to described methods [29, 52]. […] Microsomal protein was added to start the reaction. […] After the addition of 1 mL EtOAc, the vials were shaken then centrifuged. The organic phase was removed, vortexed with phosphate buffer (250 µL), 1 M aqueous HCl (50 µL), and then dried. Aliquots of 25 µL methanol, containing 250 pmol of fluorocortisol acetate as internal standard, were added to the extracts. The samples (20 µL) were submitted to HPLC (RP-8 column, methanol/water 1:1, v/v) and measured using UV (240 nm).

[9] = MRC-5 human fetal lung fibroblast cells

| MIC [1] [µg/mL] | MIC (CK98003 (Candida krusei)) [µg/mL] | MIC [2] [µg/mL] | MIC [3] [µg/mL] | MIC (C. albicans CA98001) [µg/mL] | MIC [4] [µg/mL] | MIC [5] [µg/mL] | MIC (CK98002 (Candida krusei)) [µg/mL] | MIC [6] [µg/mL] | inhibition at 36 µM (aromatase (CYP19); at 36 µM) [%] | IC50 (aromatase (CYP19); mean of at least two experiments in duplicate) [µM] | melting point [°C] | CYP17 IC50 [8] | IC50 [8] [µM] | SMILES | IC50 at 96 h (MRC5 toxicity assay) [µM] | CYP11B2 inhibition (CYP11B2) [%] | CYP11B1 inhibition (CYP11B1) | IC50 [7] [µM] | IC50 at 96 h (MRC5 toxicity assay; [9]) [µM] | MIC (= IC80) C. albicans CA98001 (C. albicans CA98001) [µg/mL] |
| --- | --- | --- | --- | --- | --- | --- | --- | --- | --- | --- | --- | --- | --- | --- | --- | --- | --- | --- | --- | --- |
| 0.021 (≈ 0.0593 µM) | 24.1 (≈ 67.9 µM) | 0.026 (≈ 0.0734 µM) | 0.021 (≈ 0.0593 µM) | 0.0198 (≈ 0.0559 µM) | 0.064 (≈ 0.181 µM) | 0.201 (≈ 0.567 µM) | 1.55 (≈ 4.37 µM) | 2.18 (≈ 6.15 µM) | 89 | 3.58 | 119 to 120 | – | – | OC(Cn1cncn1)(Cn1ccc2ccccc21)c1ccc(F)cc1F (centres unmarked) [Compound 11d, 2-(2,4-Difluorophenyl)-3-(1H-indol-1-yl)-1-(1H-1,2,4-triazol-1-yl)-propan-2-ol] | – | – | – | ~197 | > 100 | – |
| – | – | – | – | – | – | – | – | – | – | – | – | not active | – | N#Cc1ccc(C2CCCc3cncn32)cc1 (centres unmarked) [fadrozole, reference compound] | – | – | – | – | – | – |
| 2.87 (≈ 6.9 µM) | > 41.5 | 1.12 (≈ 2.7 µM) | 2.74 (≈ 6.6 µM) | 1.25 (≈ 3 µM) | 2.99 (≈ 7.2 µM) | 9.76 (≈ 23.5 µM) | 20.2 (≈ 48.7 µM) | 25.3 (≈ 60.9 µM) | – | – | 123 to 124 | – | – | Cc1c(C)n(CC(O)(Cn2cncn2)c2ccc(Cl)cc2Cl)c2ccccc12 (centres unmarked) [Compound 11k, 2-(2,4-Dichlorophenyl)-3-(2,3-dimethyl-1H-indol-1-yl)-1-(1H-1,2,4-triazol-1-yl)propan-2-ol] | – | – | – | 97.3 | ~97 | – |
| – | – | – | – | – | – | – | – | – | – | – | – | – | 0.15 | COc1ccc2c(c1)CCC(Cc1cnc[nH]1)=C2C [BW19, 4-(6-methoxy-1-methyl-3,4-dihydro-naphthalen-2-ylmethyl)-1H-imidazole, reference compound] | – | – | – | – | – | – |
| 0.116 (≈ 0.3 µM) | 0.28 (≈ 0.725 µM) | 0.251 (≈ 0.65 µM) | 0.19 (≈ 0.492 µM) | 0.062 (≈ 0.161 µM) | 0.274 (≈ 0.709 µM) | 0.24 (≈ 0.621 µM) | 1.8 (≈ 4.66 µM) | 1.2 (≈ 3.11 µM) | – | – | 212 to 213 | – | – | OC(Cn1ccnc1)(Cn1ccc2ccccc21)c1ccc(Cl)cc1Cl (centres unmarked) [Compound 8e, 2-(2,4-Dichlorophenyl)-1-(1H-imidazol-1-yl)-3-(1H-indol-1-yl)propan-2-ol] | – | – | – | – | 31 | – |
| 0.222 (≈ 0.631 µM) | > 35.2 | 0.165 (≈ 0.469 µM) | 0.215 (≈ 0.611 µM) | 0.02 (≈ 0.0568 µM) | 0.106 (≈ 0.301 µM) | 1.3 (≈ 3.69 µM) | 2.72 (≈ 7.74 µM) | > 35.2 | – | – | 201 to 202 | – | – | OC(Cn1ccnc1)(Cn1ccc2ccccc21)c1ccc(Cl)cc1 (centres unmarked) [Compound 8b, 2-(4-Chlorophenyl)-1-(1H-imidazol-1-yl)-3-(1H-indol-1-yl)propan-2-ol] | – | – | – | – | 37 | – |

| SMILES | MIC [1] [µg/mL] | MIC (CK98003 (Candida krusei)) [µg/mL] | MIC [2] [µg/mL] | MIC [3] [µg/mL] | MIC (C. albicans CA98001) [µg/mL] | MIC [4] [µg/mL] | MIC [5] [µg/mL] | MIC (CK98002 (Candida krusei)) [µg/mL] | MIC [6] [µg/mL] | inhibition at 36 µM (aromatase (CYP19); at 36 µM) [%] | IC50 (aromatase (CYP19); mean of at least two experiments in duplicate) [µM] | melting point [°C] | CYP17 IC50 [8] | IC50 [8] [µM] | IC50 at 96 h (MRC5 toxicity assay) [µM] | CYP11B2 inhibition (CYP11B2) [%] | CYP11B1 inhibition (CYP11B1) | IC50 [7] [µM] | IC50 at 96 h (MRC5 toxicity assay; [9]) [µM] | MIC (= IC80) C. albicans CA98001 (C. albicans CA98001) [µg/mL] |
| --- | --- | --- | --- | --- | --- | --- | --- | --- | --- | --- | --- | --- | --- | --- | --- | --- | --- | --- | --- | --- |
| CC(=O)N1CCN(c2ccc(OCC3COC(Cn4ccnc4)(c4ccc(Cl)cc4Cl)O3)cc2)CC1 (centres unmarked) [KTC, ketoconazole, reference compound] | 0.007 (≈ 0.0132 µM) | 0.43 (≈ 0.809 µM) | 0.009 (≈ 0.0169 µM) | 0.008 (≈ 0.0151 µM) | 0.005 (≈ 0.00941 µM) | 0.006 (≈ 0.0113 µM) | 0.064 (≈ 0.12 µM) | 0.37 (≈ 0.696 µM) | 0.079 (≈ 0.149 µM) | – | – | – | – | – | 69.1 | 100 | strong inhibitor | – | – | – |
| OC(Cn1cncn1)(Cn1cncn1)c1ccc(F)cc1F [FLC, fluconazole, reference compound] | 0.55 (≈ 1.8 µM) | 6.7 (≈ 21.9 µM) | 1 (≈ 3.27 µM) | 0.07 (≈ 0.229 µM) | 0.02 (≈ 0.0653 µM) | 0.57 (≈ 1.86 µM) | 0.6 (≈ 1.96 µM) | 2 (≈ 6.53 µM) | 7.5 (≈ 24.5 µM) | – | – | – | – | – | – | – | minor inhibitor | – | > 100 | 0.02 (≈ 0.0653 µM) |
